Assay results published in patent US20250346584A1, “NOVEL KAPPA OPIOID LIGANDS” (The Scripps Research Institute, priority 2012, published 2025).

Target: kappa opioid receptor (OPRK1) (Homo sapiens (Human), UniProt P41145)
Assay: OPRK1 antagonist assay (b-arrestin-2-TEV / b-lactamase reporter cell line, EC80 U-50488 challenge)
Type: cell-based
Conditions: read-out: IC50 nM (% inhib if other than 50%); antagonist mode vs EC80 U-50488; NA = not active at concentrations up to 10 μM

Chain of kappa opioid receptor (OPRK1) (P41145 whole entry): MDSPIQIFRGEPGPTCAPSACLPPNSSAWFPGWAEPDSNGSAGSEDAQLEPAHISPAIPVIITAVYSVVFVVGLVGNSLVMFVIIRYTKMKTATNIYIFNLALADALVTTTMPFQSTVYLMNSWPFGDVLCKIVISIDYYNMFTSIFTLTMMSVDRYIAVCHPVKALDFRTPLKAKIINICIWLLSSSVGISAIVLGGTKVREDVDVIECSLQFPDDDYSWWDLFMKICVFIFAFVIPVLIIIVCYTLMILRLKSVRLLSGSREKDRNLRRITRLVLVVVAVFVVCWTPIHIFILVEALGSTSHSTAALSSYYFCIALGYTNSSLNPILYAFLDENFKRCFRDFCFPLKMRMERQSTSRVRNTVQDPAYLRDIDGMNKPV

IC50 | SMILES
1400 nM | COC(=O)c1cc(C)c(C)nc1N1CCC(NC2CCCCC2)C(CO)C1 (stereo not drawn) [compound 162]
915 nM | COC(=O)c1cc(C)c(C)nc1N1CCC(NC2CCCCC2)C(OC)C1 (stereo not drawn) [compound 163]
62 nM | Cc1noc(-c2cc(C)c(C)nc2N2CCC(NC3CCCCC3)C(CO)C2)n1 (stereo not drawn) [compound 164]
19 nM | COC1CN(c2nc(C)c(C)cc2-c2nc(C)no2)CCC1NC1CCCCC1 (stereo not drawn) [compound 165]
7000 nM | CCc1noc(-c2cc(C)cnc2N2CC[C@@H](NC3CCCCC3)[C@H](O)C2)n1 [compound 168]
2500 nM | Cc1cnc(N2CC[C@@H](NC3CCCCC3)[C@H](O)C2)c(-c2ncco2)c1 [compound 169]
1100 nM | CCc1noc(-c2cc(C)cnc2N2CCC(NC3CCCCC3)C(CO)C2)n1 (stereo not drawn) [compound 171]
22 nM | Cc1noc(-c2cc3ccccc3nc2N2CC[C@@H](NC3CCCCC3)[C@H](O)C2)n1 [compound 172]
1200 nM | Cc1noc(-c2cc(C(F)(F)F)cnc2N2CC[C@@H](NC3CCCCC3)[C@H](O)C2)n1 [compound 173]
180 nM | COC1CN(c2ncc(C(F)(F)F)cc2-c2nc(C)no2)CCC1NC1CCCCC1 (stereo not drawn) [compound 174]
28 nM | COC1CN(c2nc3ccccc3cc2-c2nc(C)no2)CCC1NC1CCCCC1 (stereo not drawn) [compound 176]
483 nM | COC1CN(c2nc(C)c(C)cc2-c2nc(C)no2)CCC1NC1CCCCC1 (stereo not drawn) [compound 178]
253 nM | COC1CN(c2ncc(C)cc2-c2nc(C)no2)CCC1NC1CCCCC1 (stereo not drawn) [compound 179]
76 nM | CCC1(CO)CN(c2ncc(C)cc2-c2nc(C)no2)CCC1NC1CCCCC1 (stereo not drawn) [compound 182]
280 nM | CCC1CN(c2ncc(C)cc2-c2nc(C)no2)CCC1NC1CCCCC1 (stereo not drawn) [compound 183]
5 nM | Cc1noc(-c2cc3ccccc3nc2N2CCC(NC3CCCCC3)C(CO)C2)n1 (stereo not drawn) [compound 186]
341 nM | Cc1noc(-c2cc(C(F)(F)F)cnc2N2CCC(NC3CCCCC3)C(CO)C2)n1 (stereo not drawn) [compound 187]
187 nM | Cc1noc(-c2nc3ccccc3nc2N2CC[C@@H](NC3CCCCC3)[C@H](O)C2)n1 [compound 188]
125 nM | Cc1noc(-c2nc3ccccc3nc2N2CCC(NC3CCCCC3)C(CO)C2)n1 (stereo not drawn) [compound 189]
57 nM | COC1CN(c2nc3ccccc3nc2-c2nc(C)no2)CCC1NC1CCCCC1 (stereo not drawn) [compound 190]
420 nM | Cc1noc(-c2cc3c(nc2N2CCC(NC4CCCCC4)C(CO)C2)CCCC3)n1 (stereo not drawn) [compound 191]
199 nM | Cc1noc(-c2cc3ccccc3nc2N2CC[C@@H](NC3CCCCC3)[C@H](O)C2)n1 [compound 192]
729 nM | COC1CN(c2nc3c(cc2-c2nc(C)no2)CCCC3)CCC1NC1CCCCC1 (stereo not drawn) [compound 193]
180 nM | Cc1cnc(N2CCC(NC3CCCCC3)C(C)C2)c(-c2nc(C)no2)c1 (stereo not drawn) [compound 194]
700 nM | Cc1cnc(N2CCC(NC3CCOCC3)C(CO)C2)c(-c2nc(C)no2)c1 (stereo not drawn) [compound 195]
414 nM | COC1CCCCC1NC1CCN(c2ncc(C)cc2-c2nc(C)no2)CC1CO (stereo not drawn) [compound 196]
85 nM | Cc1cnc(N2CCC(NC3CCCCCC3)C(CO)C2)c(-c2nc(C)no2)c1 (stereo not drawn) [compound 197]

IC50 | SMILES
98 nM | Cc1noc(-c2cc3ccccc3nc2N2CCC(NC3CCOCC3)C(CO)C2)n1 (stereo not drawn) [compound 198]
59 nM | COC1CCCCC1NC1CCN(c2nc3ccccc3cc2-c2nc(C)no2)CC1CO (stereo not drawn) [compound 199]
14 nM | Cc1noc(-c2cc3ccccc3nc2N2CCC(NC3CCCCCC3)C(CO)C2)n1 (stereo not drawn) [compound 200]
116 nM | Cc1cnc(N2CCC(NC3CCCC3)C(CO)C2)c(-c2nc(C)no2)c1 (stereo not drawn) [compound 201]
187 nM | Cc1noc(-c2nc3ccccc3nc2N2CCC(NC3CCCC3)C(CO)C2)n1 (stereo not drawn) [compound 202]
132 nM | Cc1cnc(N2CCC(NC3CCCCC3C)C(CO)C2)c(-c2nc(C)no2)c1 (stereo not drawn) [compound 203]
52 nM | Cc1noc(-c2cc3ccccc3nc2N2CCC(NC3CCCCC3)C(F)C2)n1 (stereo not drawn) [compound 204]
17 nM | Cc1noc(-c2cc3ccccc3nc2N2CCC(NC3CCCC3)C(CO)C2)n1 (stereo not drawn) [compound 205]
33 nM | Cc1noc(-c2cc3ccccc3nc2N2CCC(NC3CCCCC3C)C(CO)C2)n1 (stereo not drawn) [compound 206]
276 nM | Cc1noc(-c2cc3c(nc2N2CC[C@@H](NC4CCCCC4)[C@H](O)C2)CCC3)n1 [compound 207]
76 nM | CCC1(CO)CN(c2nc3ccccc3cc2-c2nc(C)no2)CCC1NC1CCCCC1 (stereo not drawn) [compound 208]
18 nM | Cc1noc(-c2cc3ccccc3nc2N2CCC(NC3CCCCC3)CC2)n1 [compound 209]
72 nM | COC1CN(c2nc3c(cc2-c2nc(C)no2)CCC3)CCC1NC1CCCCC1 (stereo not drawn) [compound 210]
74 nM | Cc1noc(-c2cc3c(nc2N2CCC(NC4CCCCC4)C(CO)C2)CCC3)n1 (stereo not drawn) [compound 211]
267 nM | Cc1noc(-c2cc3ccccc3nc2N2CCC(NC3CCCCC3)C2)n1 (stereo not drawn) [compound 212]
8.5 nM | Cc1ccc2nc(N3CC[C@@H](NC4CCCCC4)[C@H](O)C3)c(-c3nc(C)no3)cc2c1 [compound 213]
3 nM | COC1CN(c2nc3ccc(C)cc3cc2-c2nc(C)no2)CCC1NC1CCCCC1 (stereo not drawn) [compound 214]
3 nM | Cc1ccc2nc(N3CCC(NC4CCCCC4)C(CO)C3)c(-c3nc(C)no3)cc2c1 (stereo not drawn) [compound 215]
4500 nM | Cc1cnc(N2CCC(NC3CCCCC3)C(CO)C2)c(C=O)c1 (stereo not drawn) [compound 216]
361 nM | Cc1cnc(N2CCC(NC3CCCCC3)C(CO)C2)c(-c2ncco2)c1 (stereo not drawn) [compound 217]
475 nM | O[C@@H]1CN(c2nc3ccccc3cc2-c2ncco2)CC[C@H]1NC1CCCCC1 [compound 218]
3.5 nM | Cc1ccc2nc(N3CCC(NC4CCCCC4)CC3)c(-c3nc(C)no3)cc2c1 [compound 219]
24 nM | Cc1noc(-c2cc(C)c(C)nc2N2CCC(NC3CCCCC3)CC2)n1 [compound 221]
163 nM | Cc1noc(-c2cc3ccccc3nc2N2CCC(CO)(NC3CCCCC3)CC2)n1 [compound 222]
13 nM | Cc1noc(-c2cc(C)c(C)nc2N2CCC(NC3CCCC3)C(CO)C2)n1 (stereo not drawn) [compound 223]
17 nM | Cc1noc(-c2cc(C)c(C)nc2N2CCC(NC3CCCCC3C)C(CO)C2)n1 (stereo not drawn) [compound 224]
70 nM | COC1CN(c2nc3ccccc3cc2-c2ncco2)CCC1NC1CCCCC1 (stereo not drawn) [compound 225]

IC50 | SMILES
107 nM | OCC1CN(c2nc3ccccc3cc2-c2ncco2)CCC1NC1CCCCC1 (stereo not drawn) [compound 226]
7 nM | Cc1ccc2cc(-c3nc(C)no3)c(N3CC[C@@H](NC4CCCCC4)[C@H](O)C3)nc2c1 [compound 227]
21 nM | COC1CN(c2nc3cc(C)ccc3cc2-c2nc(C)no2)CCC1NC1CCCCC1 (stereo not drawn) [compound 228]
5 nM | Cc1ccc2cc(-c3nc(C)no3)c(N3CCC(NC4CCCCC4)C(CO)C3)nc2c1 (stereo not drawn) [compound 229]
9 nM | Cc1noc(-c2cc3ccccc3nc2N2CCC(NC3CCCCC3O)CC2)n1 (stereo not drawn) [compound 230]
8 nM | Cc1noc(-c2cc3ccccc3nc2N2CCC(NC3CCOCC3)CC2)n1 [compound 232]
596 nM | Cc1noc(-c2cc3ccccc3nc2N2CC(NC3CCCCC3)C2)n1 [compound 234]
4 nM | Cc1noc(-c2cc3ccccc3nc2N2CCC(NC3CCCOC3)CC2)n1 (stereo not drawn) [compound 235]
20 nM | Cc1noc(-c2cc3ccccc3nc2N2CCC(NC3CCOC3)CC2)n1 (stereo not drawn) [compound 236]
8 nM | CCC(CC)NC1CCN(c2nc3ccccc3cc2-c2nc(C)no2)CC1 [compound 237]
38 nM | Cc1noc(-c2cc3cc(Cl)ccc3nc2N2CC[C@@H](NC3CCCCC3)[C@H](O)C2)n1 [compound 238]
16 nM | Cc1noc(-c2cc3cc(Cl)ccc3nc2N2CCC(NC3CCCCC3)C(CO)C2)n1 (stereo not drawn) [compound 239]
14 nM | COC1CN(c2nc3ccc(Cl)cc3cc2-c2nc(C)no2)CCC1NC1CCCCC1 (stereo not drawn) [compound 240]
59 nM | Cc1noc(-c2cc3cc(F)ccc3nc2N2CC[C@@H](NC3CCCCC3)[C@H](O)C2)n1 [compound 241]
22 nM | Cc1noc(-c2cc3cc(F)ccc3nc2N2CCC(NC3CCCCC3)C(CO)C2)n1 (stereo not drawn) [compound 243]
566 nM | Cc1cnc(N2CC[C@@H](NC3CCCCC3)[C@H](O)C2)c(-c2ncccn2)c1 [compound 244]
79 nM | Cc1cnc(N2CCC(NC3CCCCC3)C(CO)C2)c(-c2ncccn2)c1 (stereo not drawn) [compound 245]
51 nM | Cc1ccc2nc(N3CCC(NC4CCC(O)CC4)CC3)c(-c3nc(C)no3)cc2c1 (stereo not drawn) [compound 246]
4 nM | Cc1ccc2nc(N3CCC(NC4CCCOC4)CC3)c(-c3nc(C)no3)cc2c1 (stereo not drawn) [compound 247]
9 nM | COC1CN(c2nc3ccc(C)cc3cc2-c2nc(C)no2)CCC1NC1CCCCC1F (stereo not drawn) [compound 249]
8 nM | Cc1ccc2nc(N3CCC(NC4CCCCC4F)CC3)c(-c3nc(C)no3)cc2c1 (stereo not drawn) [compound 250]
11 nM | Cc1noc(-c2cc3c(F)cccc3nc2N2CC[C@@H](NC3CCCCC3)[C@H](O)C2)n1 [compound 251]
12 nM | COC1CN(c2nc3cccc(F)c3cc2-c2nc(C)no2)CCC1NC1CCCCC1 (stereo not drawn) [compound 252]
10 nM | Cc1noc(-c2cc3c(F)cccc3nc2N2CCC(NC3CCCCC3)C(CO)C2)n1 (stereo not drawn) [compound 253]
8 nM | Cc1ccc2nc(N3CCC(NC4CCOC4)CC3)c(-c3nc(C)no3)cc2c1 (stereo not drawn) [compound 254]

SMILES | IC50
COC(=O)c1cc(C)nnc1N1CC[C@@H](NC2CCCCC2)[C@H](O)C1 [compound 166] | 32 nM
Cc1cc(-c2nc(C)no2)c(N2CC[C@@H](NC3CCCCC3)[C@H](O)C2)nn1 [compound 175] | 46 nM
Cc1noc(-c2cnc(N3CC[C@@H](NC4CCCCC4)[C@H](O)C3)c(C)c2)n1 [compound 177] | > 20 nM
Cc1cc(-c2nc(C)no2)c(N2CCC(NC3CCCCC3)C(CO)C2)nn1 (stereo not drawn) [compound 180] | 7 nM
COC1CN(c2nc3ccc(F)cc3cc2-c2nc(C)no2)CCC1NC1CCCCC1 (stereo not drawn) [compound 242] | 26 nM
